Test results: patent US20260070899A1, “N-(2-(4-CYANOTHIAZOLIDIN-3-YL)-2-OXOETHYL)-QUINOLINE-4-CARBOXAMIDES” (AstraZeneca AB, priority 2022, published 2026)

Experiments:
[1] = biological target: T1, FAP enzyme activity in mouse plasma (Mus musculus, UniProt P97321); assay: FAP target engagement enzyme activity in mouse plasma (in vivo); details: male C57Bl/6 mice, single oral dose 3 or 10 mg/kg; exposure vs plasma FAP activity, Imax fixed to 1
T1 construct: tissue Charles River; host or cells: plasma of male C57Bl/6 mice after oral dosing
T1 sequence (P97321 24-761 limits assumed): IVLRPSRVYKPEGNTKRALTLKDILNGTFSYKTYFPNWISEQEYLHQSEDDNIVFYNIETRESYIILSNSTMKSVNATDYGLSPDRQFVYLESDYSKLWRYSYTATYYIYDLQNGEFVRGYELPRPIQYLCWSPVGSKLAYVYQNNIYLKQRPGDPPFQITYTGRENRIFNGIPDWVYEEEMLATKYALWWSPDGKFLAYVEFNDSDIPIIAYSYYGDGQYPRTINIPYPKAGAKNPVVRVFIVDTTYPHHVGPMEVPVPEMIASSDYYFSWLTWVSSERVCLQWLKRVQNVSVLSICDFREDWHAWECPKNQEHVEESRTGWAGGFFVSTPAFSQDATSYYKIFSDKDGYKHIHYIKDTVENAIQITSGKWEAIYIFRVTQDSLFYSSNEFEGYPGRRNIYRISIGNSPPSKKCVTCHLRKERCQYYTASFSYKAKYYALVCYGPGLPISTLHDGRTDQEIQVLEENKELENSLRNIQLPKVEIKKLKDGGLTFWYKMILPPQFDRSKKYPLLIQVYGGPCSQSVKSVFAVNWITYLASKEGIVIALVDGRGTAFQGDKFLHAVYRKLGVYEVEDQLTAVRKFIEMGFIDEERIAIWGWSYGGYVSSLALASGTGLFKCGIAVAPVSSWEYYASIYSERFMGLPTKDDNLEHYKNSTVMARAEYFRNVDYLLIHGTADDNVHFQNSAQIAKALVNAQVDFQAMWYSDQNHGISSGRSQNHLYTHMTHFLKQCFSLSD
Experimental: The effect of test compound on FAP enzyme activity in mouse plasma was evaluated in an enzymatic assay using the Fibroblast Activation Protein alpha (FAP) specific fluorogenic substrate dipeptide-Coumarin, Ala-Pro-AMC, (ARI-3144). In this assay, FAP cleaves Ala-Pro-AMC to release free AMC which is measured as a fluorescent signal that correlates with enzyme activity.
Male C57Bl/6 mice (Charles River, Germany), 8 weeks of age, were single housed in a temperature-controlled room with a 12-hour light/dark cycle (06:00-18:00 light). The mice had ad libitum access to water and rodent chow diet (R70, Lactamin, Kimstad, Sweden), and were acclimated for 5 days upon arrival. After acclimation, all mice received a single oral dose of test compound (3 or 10 mg/kg). Blood samples for whole blood compound exposure measurements were taken at 0.25, 0.5, 1, 2, 4, 8 and 24 h post oral dosing. Samples were collected in EDTA capillary tubes (20 μL, K2E, REF 19.447) and were transferred to a 96-deep well plate (NUNC, Thermo Discher Scientific) and stored at −20° C. until further analyses were performed. […]
Recombinant human FAP (PB-17-1837, construct PL-17-0278, cd33-FAP (27-757)-6His, Mw85926 Da) was used as a standard for this assay. […] The plates were read on a Beckman Paradigm reader with excitation 360 nm and emission 465 nm. Fluorescence measurements were performed with kinetic read every 5 minutes for 60 min at rt. Data were analyzed in Excel (IDBS XLfit Add-In) using a Linear Regression (y=k*x+m) model to prepare a human recombinant FAP standard curve.
On the day of the assay, plasma was diluted (1:2) to 20 μL volume in buffer (PBS, 0.1% BSA) and 7.5 μL was transferred to the assay plate (384-well black, fluotrack PS, Greiner 781076). […] The plates were read on a Beckman Paradigm reader with excitation 360 nm and emission 465 nm. Fluorescence measurements were performed with kinetic read every 5 minutes for 60 minutes at rt. As noted above, FAP cleaves Ala-Pro-AMC to release free AMC which is measured as a fluorescent signal. […]

Kinetic solubility = type: physicochemical; details: kinetic from dmso stock, n = 1 or average (n = 2-4)
Experimental: Kinetic solubility was measured as described in Comput Aided Mol Des 2015, 29, 795.

[2] = Metabolic stability in human liver microsomes (HLM); type: in vitro ADME; details: n = 1 or average (n = 2-3)
Experimental: Metabolic stability in HLM was measured as described in J Comput Aided Mol Des 2015, 29, 795.

Structure (SMILES)	IC50 [1] [nM]	solubility (Kinetic solubility) [µM]	microsomal CLint [2] [µL/min/mg]
CO[C@H]1CC[C@H](c2ccc3nccc(C(=O)NCC(=O)N4CSC[C@H]4C#N)c3c2)CC1 (single isomer, unassigned) [Example 78, N-(2-((R)-4-Cyanothiazolidin-3-yl)-2-oxoethyl)-6-((1r,4R*)-4-methoxycyclohexyl)quinoline-4-carboxamide]	2.6		
CC(C)(F)COc1ccc2nccc(C(=O)NCC(=O)N3CSC[C@H]3C#N)c2c1 [Example 3, (R)—N-(2-(4-Cyanothiazolidin-3-yl)-2-oxoethyl)-6-(2-fluoro-2-methylpropoxy)quinoline-4-carboxamide]	7.6		
COC(C)(C)c1ccc2nccc(C(=O)NCC(=O)N3CSC[C@H]3C#N)c2c1 [Example 18, (R)—N-(2-(4-Cyanothiazolidin-3-yl)-2-oxoethyl)-6-(2-methoxypropan-2-yl)quinoline-4-carboxamide]		> 1000	69
N#C[C@@H]1CSCN1C(=O)CNC(=O)c1ccnc2ccc(C3CCOCC3)cc12 [Example 20, (R)—N-(2-(4-Cyanothiazolidin-3-yl)-2-oxoethyl)-6-(tetrahydro-2H-pyran-4-yl)quinoline-4-carboxamide]	8.8		
